From patent US20030171347A1, “Sigma receptor antagonists having anti-cocaine properties and uses thereof” (priority 1998, published 2003)
Like-named read-outs stand apart in the source and are kept apart here.

Key:
[1] = biological target: T1, σ1 receptors (Cavia porcellus, UniProt Q60492); test: σ1 receptor competition binding; parameters: species or system guinea pig; conditions: read-out: σ1
T1 construct: Crude P2 membranes were prepared from guinea pig brain, rat brain, or rat liver; from tissue; host or cells: guinea pig brain (crude P2 membranes)

[2] = biological target: T2, σ2 sites (Rattus norvegicus, UniProt Q5U3Y7); test: σ2 receptor competition binding
T2 construct: Crude P2 membranes were prepared from guinea pig brain, rat brain, or rat liver; from tissue; host or cells: rat liver (crude P2 membranes)
T2 sequence (Q5U3Y7 1-176): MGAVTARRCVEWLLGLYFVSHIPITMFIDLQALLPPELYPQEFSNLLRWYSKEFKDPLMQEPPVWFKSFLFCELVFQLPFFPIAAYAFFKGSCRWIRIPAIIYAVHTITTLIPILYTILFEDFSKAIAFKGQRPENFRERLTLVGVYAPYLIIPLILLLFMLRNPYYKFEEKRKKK

[3] = biological target: T3, Dopamine (D2) receptors (Rattus norvegicus, UniProt P61169); test: Dopamine D2 receptor competition binding ([3H](−)sulpiride); conditions: rat brain homogenates, [3H](−)sulpiride; read-out: Dopamine (D2)
T3 construct: from tissue; host or cells: rat brain homogenate / P2 membranes

[4] = biological target: PCP sites on NMDA receptors (Rattus norvegicus, UniProt P35439); test: PCP site competition binding ([3H]TCP); conditions: rat brain homogenates, [3H]TCP; read-out: NMDA (PCP)
[5] = biological target: 5-HT2 receptors (Rattus norvegicus, UniProt P14842); test: 5-HT2 receptor competition binding ([3H]ketanserin); conditions: rat brain homogenates, [3H]ketanserin; read-out: 5-HT2
[6] = test system: Male, Swiss Webster mice; test: Effects of sigma ligands alone on baseline locomotor activity; format: in vivo; conditions: 30 min; i.p. mg/kg: BD1008 1, BD1067 5, BD1047 30, LR172 5, BD1018 30, BD1063 30, LR132 30, LR176 10, YZ011 0.1, YZ027 1, YZ029 5
[7] = test system: Male, Swiss Webster mice; test: Attenuation of cocaine-induced locomotor activity; format: in vivo; conditions: same ligand doses as baseline test, 15 min before cocaine 10 mg/kg i.p.; 30 min; ANOVA
[8] = test system: rat red nucleus; test: Acute dystonic reaction after microinjection into the rat red nucleus; format: in vivo; conditions: alone and against sigma agonists such as DTG
[9] = Table 1, [3H](+)-pentazocine, guinea pig brain, mean±SEM, minimum of two independent assays
[10] = Table 4, second series, [3H](+)-pentazocine, guinea pig brain
[11] = Table 1, [3H]DTG plus dextrallorphan, rat liver, mean±SEM, minimum of two independent assays
[12] = Table 4, second series, [3H]DTG plus dextrallorphan, rat liver
[13] = Table 5, dopamine transporter ligands

T1 sequence (Q60492 whole entry): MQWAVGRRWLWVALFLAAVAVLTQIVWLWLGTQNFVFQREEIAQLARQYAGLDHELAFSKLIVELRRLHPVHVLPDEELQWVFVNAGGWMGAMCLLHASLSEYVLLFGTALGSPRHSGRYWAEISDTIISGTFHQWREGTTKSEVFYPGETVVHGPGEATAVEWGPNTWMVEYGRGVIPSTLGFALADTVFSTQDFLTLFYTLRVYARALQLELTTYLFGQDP
5-HT2 receptors, sequence (P14842 whole entry): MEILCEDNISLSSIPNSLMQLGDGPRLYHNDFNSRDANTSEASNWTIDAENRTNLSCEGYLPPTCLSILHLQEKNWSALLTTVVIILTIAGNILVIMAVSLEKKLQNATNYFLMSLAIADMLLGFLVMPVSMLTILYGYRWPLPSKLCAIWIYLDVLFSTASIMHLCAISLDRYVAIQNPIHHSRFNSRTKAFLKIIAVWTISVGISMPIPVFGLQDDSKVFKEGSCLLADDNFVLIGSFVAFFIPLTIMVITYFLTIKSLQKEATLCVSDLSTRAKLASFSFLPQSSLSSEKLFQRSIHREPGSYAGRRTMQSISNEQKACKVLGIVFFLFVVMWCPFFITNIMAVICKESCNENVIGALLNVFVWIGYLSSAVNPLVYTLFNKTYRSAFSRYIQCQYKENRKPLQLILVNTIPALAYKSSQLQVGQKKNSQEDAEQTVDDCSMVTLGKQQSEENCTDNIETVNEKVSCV
T3 sequence (P61169 whole entry): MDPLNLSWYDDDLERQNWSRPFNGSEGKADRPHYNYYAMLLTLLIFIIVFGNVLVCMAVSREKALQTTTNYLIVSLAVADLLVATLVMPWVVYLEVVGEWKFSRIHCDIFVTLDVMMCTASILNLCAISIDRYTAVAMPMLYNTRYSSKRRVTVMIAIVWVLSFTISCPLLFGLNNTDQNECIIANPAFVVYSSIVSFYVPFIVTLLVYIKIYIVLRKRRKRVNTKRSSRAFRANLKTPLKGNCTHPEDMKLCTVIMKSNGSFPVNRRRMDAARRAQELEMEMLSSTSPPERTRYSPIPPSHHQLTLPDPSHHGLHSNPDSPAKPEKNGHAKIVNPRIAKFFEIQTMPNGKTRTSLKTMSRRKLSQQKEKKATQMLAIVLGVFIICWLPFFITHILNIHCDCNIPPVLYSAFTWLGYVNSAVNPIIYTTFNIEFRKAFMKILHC

Compound | Ki [1, 9] [nM] | Ki [1, 10] [nM] | Ki [2, 11] [nM] | Ki [2, 12] [nM] | IC50 [3] [nM] | IC50 [4] [nM] | IC50 [5] [nM] | also measured
Nc1ccccc1CCN1CCN(CCCc2ccccc2)CC1 [YZ-165-2-2] | 5 ± 0.1 | 5 ± 0.1 | 18 ± 0.2 | 18 ± 0.2 | – | – | – | –
COc1ccc(CC(=O)N(C)CCN2CCCC2)cc1 [YZ-007] | 2220 ± 61 | – | 1220 ± 95 | – | > 10000 | > 10000 | > 10000 | –
Fc1ccc(C(OCCN2CCN(CCCc3ccccc3)CC2)c2ccc(F)cc2)cc1 [GBR 12909, reference compound] | – | – | – | – | – | – | – | Ki [1, 13]: 132 ± 31 nM; Ki [2, 13]: 133 ± 37 nM
COc1ccc(CCN2CCN(CCCc3ccccc3)CC2)cc1 [YZ-067-2] | 1 ± 0.3 | 1 ± 0.3 | 29 ± 2 | 29 ± 2 | – | – | – | –
CN(CCc1cccc([N+](=O)[O-])c1)CCN1CCCC1 [YZ-027] | 6 ± 2 | – | 95 ± 0.7 | – | > 10000 | > 10000 | > 10000 | baseline horizontal locomotor activity versus saline [6]: no significant difference; cocaine stimulated locomotor activity after pre-treatment [7]: significant reduction in cocaine stimulated locomotor activity
C[C@@H]1CN(CCCn2c3ccccc3c3ccccc32)C[C@H](C)N1 [Rimcazole, reference compound] | – | – | 1160 ± 160 | – | – | – | – | –
COc1ccccc1CCN1CCN(CCCc2ccccc2)CC1 [YZ-184-2] | – | – | 8 ± 0.2 | 8 ± 0.2 | – | – | – | –
NCCN1CCN(CCCc2ccccc2)CC1 [YZ-136-2] | 3 ± 0.09 | 3 ± 0.09 | 188 ± 13 | 188 ± 13 | – | – | – | –
COc1ccccc1CC(=O)N(C)CCN1CCCC1 [YZ-008] | – | – | 3170 ± 144 | – | > 10000 | > 10000 | > 10000 | –
CN(CCc1ccc([N+](=O)[O-])cc1)CCN1CCCC1 [YZ-029] | 4 ± 0.9 | – | 63 ± 0.1 | – | > 10000 | > 10000 | > 10000 | baseline horizontal locomotor activity versus saline [6]: no significant difference; cocaine stimulated locomotor activity after pre-treatment [7]: significant reduction in cocaine stimulated locomotor activity
CN(CCc1cccc(N)c1)CCN1CCCC1 [YZ-033] | 579 ± 35 | – | 2240 ± 260 | – | > 10000 | > 10000 | > 10000 | –
CN(CCc1ccc(N)cc1)CCN1CCCC1 [YZ-030] | 276 ± 13 | – | 973 ± 77 | – | > 10000 | > 10000 | > 10000 | –
CC(C)=CCN1CCC2(C)c3cc(O)ccc3CC1C2C (single isomer, unassigned; (+)) [(+)-Pentazocine, reference compound] | – | – | – | – | – | – | – | agonist versus antagonist designation (dystonic head postures) [8]: agonists
CN(CCc1ccccc1[N+](=O)[O-])CCN1CCCC1 [YZ-028] | 8 ± 0.9 | – | 311 ± 4 | – | > 10000 | > 10000 | > 10000 | –
O=C(Cc1ccc([N+](=O)[O-])cc1)N1CCN(CCCc2ccccc2)CC1 [YZ-155-2] | 14 ± 1 | 14 ± 1 | 167 ± 4 | 167 ± 4 | – | – | – | –
COc1cccc(CC(=O)N(C)CCN2CCCC2)c1 [YZ-005] | 3101 ± 20 | – | 1110 ± 55 | – | > 10000 | > 10000 | > 10000 | –
COc1ccc(CC(=O)N2CCN(CCCc3ccccc3)CC2)cc1 [YZ-051-2] | 13 ± 2 | 13 ± 2 | 464 ± 34 | 464 ± 34 | – | – | – | –
OC(CCCN1CCN(c2ncc(F)cn2)CC1)c1ccc(F)cc1 (stereo not shown) [BMY14802, reference compound] | – | – | 51 ± 8 | – | – | – | – | –
COc1ccccc1CC(=O)N1CCN(CCCc2ccccc2)CC1 [YZ-048-2] | 56 ± 8 | 56 ± 8 | 294 ± 10 | 294 ± 10 | – | – | – | –
COc1cccc(CCN2CCN(C(=O)Cc3cccc(OC)c3)CC2)c1 [YZ-085-2] | – | – | 12 ± 2 | 12 ± 2 | – | – | – | –
Clc1ccc(CCN2CCN(CCCc3ccccc3)CC2)cc1Cl [YZ-069-2] | 2 ± 0.2 | 2 ± 0.2 | 39 ± 2 | 39 ± 2 | – | – | – | –
CN(CCc1ccccc1N)CCN1CCCC1 [YZ-032] | 291 ± 38 | – | 640 ± 25 | – | > 10000 | > 10000 | > 10000 | –
